Legend:
[1] = tested on: STAT5 phosphorylation in lymphocytes; test: STAT5 phosphorylation in lymphocytes by flow cytometry after administration in mice; assay type: in vivo
Text: Conventional approaches, such as those involving radiolabeling a compound, administering it in vivo, and determining its clearance, may be used to determine whether a compound proposed to be a long-acting IL-2Rβ biased agonist is “long-acting”. For the purposes herein, the long-acting nature of an IL-2Rβ biased agonist is typically determined using flow cytometry to measure STAT5 phosphorylation in lymphocytes at various time points after administration of the agonist to be evaluated in mice.

[2] = tested on: B16F10 mouse melanoma tumors; test: Immune cells in tumor microenvironment by flow cytometry, subcutaneous B16F10 melanoma; assay type: in vivo, mice

aldesleukin: clinically available IL-2 (aldesleukin), unmodified recombinant IL-2
time by which STAT5 phosphorylation signal is lost [1]: around 24 hours | activated natural killer (NK) cells ([2]; 5 and 7 days after treatment initiation): increased | ratio of CD8/Treg in the tumor ([2]; by day 7, single dose RSLAIL-2 or 5 doses aldesleukin): 18 | total and memory CD8 cells as percentage of tumor-infiltrating lymphocytes ([2]; relative to vehicle): increased as a percentage of tumor-infiltrating lymphocytes; however, these effects were transient | percentage of Tregs (FoxP3+ subset of CD4 cells) in tumor ([2]; single dose RSLAIL-2 or 5 doses aldesleukin): modest achieving significance on day 5

Source: patent publication US12054553B2, “Immunotherapeutic tumor treatment method” (Nektar Therapeutics, priority 2017, dated 2024)
